Source: article PMC10987480, “Biological and mutational analyses of CXCR4–antagonist interactions and design of new antagonistic analogs” (Bioscience Reports, 2023)

Experiments:
CXCR4 D193A = target: T1, CXCR4 D193A (Homo sapiens, UniProt P61073, D193A); experiment: Competitive binding to CXCR4 mutant D193A (12G5, CHO cells); conditions: TM4, class of reduction vs wild-type CXCR4, 12G5 competition, averages of at least three independent experiments
T1 construct: expressed in transfected cells
Description: (§1) Plasmid pcDNA3-CXCR4 and mutated pcDNA3-CXCR4 were extracted and transfected into CHO cells using Lipofectamine 2000 according to the manufacturer’s guidelines. The selective medium containing G418 at a concentration of 1.2 mg/ml was applied to isolate stably transfected cells. CHO cells expressing wild-type CXCR4 and mutant CXCR4 were obtained using fluorescence-activated cell sorting (FACS).
(§2) All of the CXCR4 mutants were prepared using PCR technology. Briefly, pairs of asymmetrical primers containing the desired amino acid mutations (Supplementary Tables S1 and S2), each complementary to opposite strands of the pcDNA3–CXCR4, were designed for amplification by Q5® High-Fidelity DNA polymerase and the generation of mutated constructs. The methylated pcDNA3–CXCR4 templates were digested by DpnI. The mutated pcDNA3–CXCR4 was transformed into competent E. coli TOP10 for long-term storage and amplification.
(§3) The procedure for the CXCR4 competitive binding experiments was published previously. Briefly, CXCR4 antibody 12G5 (250 ng/ml) was incubated with 5 × 10^5 cells and varying concentrations of unlabeled compounds in a final volume of 100 μl of assay buffer (PBS with 0.5% BSA and 0.05% NaN3) in 96-well plates for 40 min on ice, after being washed with assay buffer once. The cells were incubated with FITC-conjugated second antibody IgG for 30 min on ice, then washed with assay buffer three times. The fluorescence intensity was measured for excitation at 485 nm and emission at 535 nm using multimode plate reader (PerkinElmer). The IC50 values were calculated using graphpad Prism 7. Experiments were performed at least three times.

CXCR4 H203A = target: T2, CXCR4 H203A (Homo sapiens, UniProt P61073, H203A); experiment: Competitive binding to CXCR4 mutant H203A (12G5, CHO cells); conditions: TM5, class of reduction vs wild-type CXCR4, 12G5 competition, averages of at least three independent experiments
T2 construct: expressed in transfected cells
Description: as §1, §2, §3

CXCR4 Y256A = target: T3, CXCR4 Y256A (Homo sapiens, UniProt P61073, Y256A); experiment: Competitive binding to CXCR4 mutant Y256A (12G5, CHO cells); conditions: TM6, class of reduction vs wild-type CXCR4, 12G5 competition, averages of at least three independent experiments
T3 construct: expressed in transfected cells
Description: as §1, §2, §3

CXCR4 W161A = target: T4, CXCR4 W161A (Homo sapiens, UniProt P61073, W161A); experiment: Competitive binding to CXCR4 mutant W161A (12G5, CHO cells); conditions: TM4, class of reduction vs wild-type CXCR4, 12G5 competition, averages of at least three independent experiments
T4 construct: expressed in transfected cells
Description: as §1, §2, §3

CXCR4 V112A = target: T5, CXCR4 V112A (Homo sapiens, UniProt P61073, V112A); experiment: Competitive binding to CXCR4 mutant V112A (12G5, CHO cells); conditions: TM3, class of reduction vs wild-type CXCR4, 12G5 competition, averages of at least three independent experiments
T5 construct: expressed in transfected cells
Description: as §1, §2, §3

CXCR4 R30A = target: T6, CXCR4 R30A (Homo sapiens, UniProt P61073, R30A); experiment: Competitive binding to CXCR4 mutant R30A (12G5, CHO cells); parameters: key to the marks not given beside the values; conditions: TM1, class of reduction vs wild-type CXCR4, 12G5 competition, averages of at least three independent experiments
T6 construct: expressed in transfected cells
Description: as §1, §2, §3

CXCR4 W252A = target: T7, CXCR4 W252A (Homo sapiens, UniProt P61073, W252A); experiment: Competitive binding to CXCR4 mutant W252A (12G5, CHO cells); conditions: TM6, class of reduction vs wild-type CXCR4, 12G5 competition, averages of at least three independent experiments
T7 construct: expressed in transfected cells
Description: as §1, §2, §3

CXCR4 H281A = target: T8, CXCR4 H281A (Homo sapiens, UniProt P61073, H281A); experiment: Competitive binding to CXCR4 mutant H281A (12G5, CHO cells); conditions: TM7, class of reduction vs wild-type CXCR4, 12G5 competition, averages of at least three independent experiments
T8 construct: expressed in transfected cells
Description: as §1, §2, §3

CXCR4 W195A = target: T9, CXCR4 W195A (Homo sapiens, UniProt P61073, W195A); experiment: Competitive binding to CXCR4 mutant W195A (12G5, CHO cells); conditions: TM4, class of reduction vs wild-type CXCR4, 12G5 competition, averages of at least three independent experiments
T9 construct: expressed in transfected cells
Description: as §1, §2, §3

CXCR4 Y255A = target: T10, CXCR4 Y255A (Homo sapiens, UniProt P61073, Y255A); experiment: Competitive binding to CXCR4 mutant Y255A (12G5, CHO cells); conditions: TM6, class of reduction vs wild-type CXCR4, 12G5 competition, averages of at least three independent experiments
T10 construct: expressed in transfected cells
Description: as §1, §2, §3

CXCR4 I284A = target: T11, CXCR4 I284A (Homo sapiens, UniProt P61073, I284A); experiment: Competitive binding to CXCR4 mutant I284A (12G5, CHO cells); conditions: TM7, class of reduction vs wild-type CXCR4, 12G5 competition, averages of at least three independent experiments
T11 construct: expressed in transfected cells
Description: as §1, §2, §3

CXCR4 = CXCR4 (Homo sapiens, UniProt P61073); experiment: Competitive CXCR4 binding assay (12G5 antibody probe), wild-type CXCR4 transfected CHO cells; parameters: expressed in transfected cells; Competitive receptor binding activity, wild-type CXCR4 (WT): key to the marks not given beside the values; conditions: class relative to wild-type; 12G5 competition, stably transfected CHO cells; averages of at least three independent experiments
Description: The CXCR4-specific antibody, 12G5 was used as a probe for the competitive CXCR4 binding assay to evaluate the binding activity of CXCR4 antagonists.
Figure 1 Competitive CXCR4 binding curves of eleven CXCR4 antagonists The CXCR4 transfected CHO cells were incubated with different concentrations of antagonists and 250 ng/ml 12G5 antibody. The CXCR4-binding 12G5 antibody was recognized by FITC-conjugated anti-IgG second antibody. The cells treated with only second antibody were used as a negative control (0%) while cells treated with both 12G5 antibody and second antibody were used as a positive control (100%). Cells treated with CXCR4 antagonists were calculated in percentage relative to the positive and negative controls. The data were averages of at least three independent experiments and shown as mean ± standard error of the mean (S.E.M.).
as §3

CXCR4 H113A = target: T12, CXCR4 H113A (Homo sapiens, UniProt P61073, H113A); experiment: Competitive binding to CXCR4 mutant H113A (12G5, CHO cells); conditions: TM3, class of reduction vs wild-type CXCR4, 12G5 competition, averages of at least three independent experiments
T12 construct: expressed in transfected cells
Description: as §1, §2, §3

CXCR4 T117A = target: T13, CXCR4 T117A (Homo sapiens, UniProt P61073, T117A); experiment: Competitive binding to CXCR4 mutant T117A (12G5, CHO cells); conditions: TM3, class of reduction vs wild-type CXCR4, 12G5 competition, averages of at least three independent experiments
T13 construct: expressed in transfected cells
Description: as §1, §2, §3

T1 sequence (P61073 whole entry D193A): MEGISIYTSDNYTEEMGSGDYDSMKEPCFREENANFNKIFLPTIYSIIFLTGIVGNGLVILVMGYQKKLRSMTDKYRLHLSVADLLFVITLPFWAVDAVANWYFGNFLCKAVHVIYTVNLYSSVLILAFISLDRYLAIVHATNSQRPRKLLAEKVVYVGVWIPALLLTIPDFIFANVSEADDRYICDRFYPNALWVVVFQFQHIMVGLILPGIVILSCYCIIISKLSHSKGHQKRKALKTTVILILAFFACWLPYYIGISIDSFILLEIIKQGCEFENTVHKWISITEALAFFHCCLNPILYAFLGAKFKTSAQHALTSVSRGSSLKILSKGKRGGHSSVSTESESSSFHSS
T13 sequence (P61073 whole entry T117A): as the sequence (P61073 whole entry D193A) above, with T117A, A193D counted along it
T3 sequence (P61073 whole entry Y256A): as the sequence (P61073 whole entry D193A) above, with A193D, Y256A counted along it
T5 sequence (P61073 whole entry V112A): as the sequence (P61073 whole entry D193A) above, with V112A, A193D counted along it
Sequence of CXCR4 (P61073 whole entry): as the sequence (P61073 whole entry D193A) above, with A193D counted along it
T8 sequence (P61073 whole entry H281A): as the sequence (P61073 whole entry D193A) above, with A193D, H281A counted along it
T10 sequence (P61073 whole entry Y255A): as the sequence (P61073 whole entry D193A) above, with A193D, Y255A counted along it
T2 sequence (P61073 whole entry H203A): as the sequence (P61073 whole entry D193A) above, with A193D, H203A counted along it
T9 sequence (P61073 whole entry W195A): as the sequence (P61073 whole entry D193A) above, with A193D, W195A counted along it
T7 sequence (P61073 whole entry W252A): as the sequence (P61073 whole entry D193A) above, with A193D, W252A counted along it
T6 sequence (P61073 whole entry R30A): as the sequence (P61073 whole entry D193A) above, with R30A, A193D counted along it
T11 sequence (P61073 whole entry I284A): as the sequence (P61073 whole entry D193A) above, with A193D, I284A counted along it
T4 sequence (P61073 whole entry W161A): as the sequence (P61073 whole entry D193A) above, with W161A, A193D counted along it
T12 sequence (P61073 whole entry H113A): as the sequence (P61073 whole entry D193A) above, with H113A, A193D counted along it

Row | Compound | Competitive receptor binding activity, CXCR4 D193A (CXCR4 D193A) | Competitive receptor binding activity, CXCR4 H203A (CXCR4 H203A) | Competitive receptor binding activity, CXCR4 Y256A (CXCR4 Y256A) | Competitive receptor binding activity, CXCR4 W161A (CXCR4 W161A) | Competitive receptor binding activity, CXCR4 V112A (CXCR4 V112A) | Competitive receptor binding activity, CXCR4 R30A (CXCR4 R30A) | Competitive receptor binding activity, CXCR4 W252A (CXCR4 W252A) | Competitive receptor binding activity, CXCR4 H281A (CXCR4 H281A) | Competitive receptor binding activity, CXCR4 W195A (CXCR4 W195A) | Competitive receptor binding activity, CXCR4 Y255A (CXCR4 Y255A) | Competitive receptor binding activity, CXCR4 I284A (CXCR4 I284A) | Competitive receptor binding activity, wild-type CXCR4 (WT) (CXCR4) | Competitive receptor binding activity, CXCR4 H113A (CXCR4 H113A) | Competitive receptor binding activity, CXCR4 T117A (CXCR4 T117A)
1 | c1cc(CN2CCCNCCNCCCNCC2)ccc1CN1CCCNCCNCCCNCC1 [AMD3100] | ++ (10–29% reduction compared with wild-type CXCR4) | +++ | +++ | +++ | +++ | +++ | +++ | +++ | +++ | ++ (10–29% reduction compared with wild-type CXCR4) | +++ | +++ | ++ (10–29% reduction compared with wild-type CXCR4) | +++
2 | NCCCCN(Cc1nc2ccccc2[nH]1)[C@H]1CCCc2cccnc21 [AMD11070] | +++ | +++ | +++ | ++ (10–29% reduction compared with wild-type CXCR4) | +++ | +++ | +++ | ++ (10–29% reduction compared with wild-type CXCR4) | ++ (10–29% reduction compared with wild-type CXCR4) | +++ | +++ | +++ | + (30–60% reduction compared with wild-type CXCR4) | +++
